From ChEMBL document CHEMBL1148308, “Peptide-based inhibitors of the hepatitis C virus NS3 protease: structure-activity relationship at the C-terminal position” (J Med Chem, 2004) come the findings set out here.

As a reminder, the IC50 is the point on the concentration scale where inhibition reaches its midpoint.

Where a SMILES comes first, the peptide text is derived from it. [ ]: non-standard residue; d: D form. Hyp(2-Ph-quinolin-4-yl) = O=C(O)[C@@H]1C[C@@H](Oc2cc(-c3ccccc3)nc3ccccc23)CN1; Ac3c(1R,2S-2-vinyl) = C=C[C@@H]1C[C@]1(N)C(=O)O; Chg = N[C@H](C(=O)O)C1CCCCC1

The assay in a line: Inhibitory activity against the hepatitis C virus NS3 protease was determined. More on the design: species or system Hepacivirus hominis.
Take `CC(=O)N[C@H](C(=O)N[C@H](C(=O)N1CC(OCc2ccccc2)CC1C(=O)NC1(C(=O)O)CC1)C(C)C)C1CCCCC1` (single isomer, unassigned): half-maximal inhibition (IC50) required 330 µM.
`CCC[C@H](NC(=O)C1CC(OCc2ccccc2)CN1C(=O)[C@@H](NC(=O)[C@@H](NC(C)=O)C1CCCCC1)C(C)C)C(=O)O` (single isomer, unassigned): the IC50 is 530 µM. This IC50 is about 1.6-fold higher than that of the compound before.
With `CC[C@@H]1C[C@]1(NC(=O)C1CC(OCc2cccc3ccccc23)CN1C(=O)[C@@H](NC(=O)[C@@H](NC(C)=O)C1CCCCC1)C(C)C)C(=O)O` (single isomer, unassigned) the figure was 4.8 µM.
As for `CC(=O)N[C@H](C(=O)N[C@H](C(=O)N1C[C@H](OCc2cccc3ccccc23)C[C@H]1C(=O)N[C@]1(C(=O)O)C[C@H]1CCc1ccccc1)C(C)C)C1CCCCC1`, the IC50 amounted to 22 µM.
In the case of `CCC[C@@H]1C[C@]1(NC(=O)C1CC(OCc2cccc3ccccc23)CN1C(=O)[C@@H](NC(=O)[C@@H](NC(C)=O)C1CCCCC1)C(C)C)C(=O)O` (single isomer, unassigned) it was 5.5 µM; in that of `CC(=O)N[C@H](C(=O)N[C@H](C(=O)N1C[C@H](OCc2cccc3ccccc23)C[C@H]1C(=O)N[C@@]1(C(=O)O)C[C@@H]1Cc1ccccc1)C(C)C)C1CCCCC1`, 81 µM; in that of `CC(=O)N[C@H](C(=O)N[C@H](C(=O)N1CC(OCc2cccc3ccccc23)CC1C(=O)N[C@]1(C(=O)O)C[C@H]1C)C(C)C)C1CCCCC1` (single isomer, unassigned), 22 µM.
The compound `CC(=O)N[C@H](C(=O)N[C@H](C(=O)N1CC(OCc2ccccc2)CC1C(=O)N[C@@H](CS)C(=O)O)C(C)C)C1CCCCC1` (single isomer, unassigned) returned an IC50 of 140 µM.
With `C=C[C@@H]1C[C@]1(NC(=O)C1CC(OCc2ccccc2)CN1C(=O)[C@@H](NC(=O)[C@@H](NC(C)=O)C1CCCCC1)C(C)C)C(=O)O` (single isomer, unassigned) the figure was 9.7 µM; with `CC(=O)N[C@H](C(=O)N[C@H](C(=O)N1CC(OCc2cccc3ccccc23)CC1C(=O)N[C@@]1(C(=O)O)C[C@@H]1C)C(C)C)C1CCCCC1` (single isomer, unassigned), 180 µM; with `CC(=O)N[C@H](C(=O)N[C@H](C(=O)N1C[C@H](OCc2cccc3ccccc23)C[C@H]1C(=O)N[C@@]1(C(=O)O)C[C@@H]1CCc1ccccc1)C(C)C)C1CCCCC1`, 90 µM.
For `CCC1(CC)C[C@]1(NC(=O)C1CC(OCc2cccc3ccccc23)CN1C(=O)[C@@H](NC(=O)[C@@H](NC(C)=O)C1CCCCC1)C(C)C)C(=O)O` (single isomer, unassigned), the IC50 turned out to be 310 µM.
In the case of `CCC[C@H]1C[C@@]1(NC(=O)C1CC(OCc2cccc3ccccc23)CN1C(=O)[C@@H](NC(=O)[C@@H](NC(C)=O)C1CCCCC1)C(C)C)C(=O)O` (single isomer, unassigned) it was 41 µM; in that of `CC(=O)N[C@H](C(=O)N[C@H](C(=O)N1C[C@H](OCc2cccc3ccccc23)C[C@H]1C(=O)N[C@]1(C(=O)O)C[C@H]1Cc1ccccc1)C(C)C)C1CCCCC1`, 14 µM.
In the case of `C=C[C@@H]1C[C@]1(NC(=O)[C@@H]1C[C@@H](Oc2cc(-c3ccccc3)nc3ccccc23)CN1C(=O)[C@@H](NC(=O)[C@@H](NC(C)=O)C1CCCCC1)C(C)C)C(=O)O` (Ac-[Chg]V[Hyp(2-Ph-quinolin-4-yl)][Ac3c(1R,2S-2-vinyl)]-OH) it was 0.019 µM; in that of `CC(=O)N[C@H](C(=O)N[C@H](C(=O)N1CC(OCc2cccc3ccccc23)CC1C(=O)NC1(C(=O)O)CC1)C(C)C)C1CCCCC1` (single isomer, unassigned), 14 µM; in that of `C=C[C@@H]1C[C@]1(NC(=O)C1CC(OCc2cccc3ccccc23)CN1C(=O)[C@@H](NC(=O)[C@@H](NC(C)=O)C1CCCCC1)C(C)C)C(=O)O` (single isomer, unassigned), 0.63 µM.
Compound `C=C[C@@H]1C[C@]1(NC(=O)C1CC(Oc2ccnc3cc(OC)ccc23)CN1C(=O)[C@@H](NC(=O)[C@@H](NC(C)=O)C1CCCCC1)C(C)C)C(=O)O` (single isomer, unassigned) yielded an IC50 of 0.029 µM.
In the case of `CC(=O)N[C@H](C(=O)N[C@H](C(=O)N1CC(Oc2cc(-c3ccccc3)nc3ccccc23)CC1C(=O)NC1(C(=O)O)CC1)C(C)C)C1CCCCC1` (single isomer, unassigned) it was 0.55 µM.
`CC(=O)N[C@H](C(=O)N[C@H](C(=O)N1C[C@H](OCc2cccc3ccccc23)C[C@H]1C(=O)N[C@]1(C(=O)O)C[C@H]1C(C)C)C(C)C)C1CCCCC1` had an IC50 of 5.5 µM.
`CC[C@H]1C[C@@]1(NC(=O)C1CC(OCc2cccc3ccccc23)CN1C(=O)[C@@H](NC(=O)[C@@H](NC(C)=O)C1CCCCC1)C(C)C)C(=O)O` (single isomer, unassigned) yielded an IC50 of 32 µM. This IC50 is about 5.8-fold higher than that of the compound before.
For `COc1ccc2c(OC3CC(C(=O)NC4(C(=O)O)CC4)N(C(=O)[C@@H](NC(=O)[C@@H](NC(C)=O)C4CCCCC4)C(C)C)C3)ccnc2c1` (single isomer, unassigned), it took 0.85 µM to reach half-maximal inhibition (IC50).
In the case of `CC(=O)N[C@H](C(=O)N[C@H](C(=O)N1C[C@H](OCc2cccc3ccccc23)C[C@H]1C(=O)N[C@@]1(C(=O)O)C[C@@H]1C(C)C)C(C)C)C1CCCCC1` it was 640 µM; in that of `CCC[C@H](NC(=O)C1CC(OCc2cccc3ccccc23)CN1C(=O)[C@@H](NC(=O)[C@@H](NC(C)=O)C1CCCCC1)C(C)C)C(=O)O` (single isomer, unassigned), 23 µM.
